# Laboratory results reported in patent US20230330034A1, “COVALENTLY CROSS-LINKED GLYCOSYLATED MUCIN NANOPARTICLES AS SYSTEMS FOR THE DELIVERY AND RELEASE OF ACTIVE INGREDIENTS AND BIOMOLECULES” (priority 2020, published 2023).
# Experiments:
# [1] = PAMPA, 5 h, 200 µM
# [2] = test system: H358 lung cancer cell line; experiment: Antiproliferative activity, % of cell viability; format: cell-based; conditions: Homo sapiens, NCI-H358, read-out: 1050
Ca (t) [1],Cd(t) [1],Ceq [1],IC50 [2],Structure (SMILES)
2.01 µM,6.6 µM,3.85 µM,,CC(C)NCC(O)COc1cccc2ccccc12 (centres unmarked) [propranolol]
,,,0.3 nM,COc1cccc2c1C(=O)c1c(O)c3c(c(O)c1C2=O)C[C@@](O)(C(=O)CO)C[C@@H]3O[C@H]1C[C@H](N)[C@H](O)[C@H](C)O1 [doxorubicin]
,,,7 nM,CC(=O)Nc1cccc(-n2c(=O)n(C3CC3)c(=O)c3c(Nc4ccc(I)cc4F)n(C)c(=O)c(C)c32)c1 [trametinib]
